Literature values, collected in paper PMC3010531 (Journal of the American Chemical Society, 2010).

Tests used:
mH2A1.1 = mH2A1.1 (Homo sapiens, UniProt O75367); conditions: ref 13c
mH2A1.2 = mH2A1.2 (Homo sapiens, UniProt O75367); conditions: splice-variant; ref 13c
mH2A1.1 (G224E) = mH2A1.1 (G224E) (Homo sapiens, UniProt O75367, G224E); conditions: point-mutant; ref 13c
Chain of mH2A1.1 (G224E) (O75367 whole entry G224E, species assumed): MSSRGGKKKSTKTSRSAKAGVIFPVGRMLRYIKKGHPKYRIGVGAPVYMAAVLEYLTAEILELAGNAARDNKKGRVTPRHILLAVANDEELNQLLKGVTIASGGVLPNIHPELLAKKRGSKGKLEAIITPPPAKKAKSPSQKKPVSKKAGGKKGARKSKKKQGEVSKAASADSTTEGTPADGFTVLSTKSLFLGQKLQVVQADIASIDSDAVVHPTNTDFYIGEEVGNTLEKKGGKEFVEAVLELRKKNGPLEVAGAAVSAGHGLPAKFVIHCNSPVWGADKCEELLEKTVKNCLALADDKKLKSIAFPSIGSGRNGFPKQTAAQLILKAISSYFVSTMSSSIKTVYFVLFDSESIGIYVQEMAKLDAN

Chain of mH2A1.1 (O75367 184-367 limits assumed, species assumed): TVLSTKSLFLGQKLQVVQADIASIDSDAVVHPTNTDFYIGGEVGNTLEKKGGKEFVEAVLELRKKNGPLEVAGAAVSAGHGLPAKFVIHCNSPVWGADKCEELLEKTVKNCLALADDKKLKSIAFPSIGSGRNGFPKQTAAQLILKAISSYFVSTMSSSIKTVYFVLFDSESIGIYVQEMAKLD
Chain of mH2A1.2 (O75367 162-372 isoform O75367-1): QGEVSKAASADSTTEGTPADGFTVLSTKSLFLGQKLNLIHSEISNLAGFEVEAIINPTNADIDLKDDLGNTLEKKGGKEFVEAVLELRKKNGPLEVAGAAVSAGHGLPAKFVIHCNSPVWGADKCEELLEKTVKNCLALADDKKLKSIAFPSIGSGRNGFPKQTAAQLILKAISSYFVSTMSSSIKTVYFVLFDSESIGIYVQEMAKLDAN

affinity of free ADPR for mH2A1.1 (mH2A1.1): modest, in the μM range | binding of ADPR by mH2A1.2 (mH2A1.2): does not bind ADPR | binding of ADPR by mH2A1.1 (G224E) (mH2A1.1 (G224E)): abolishes ADPR binding
Compound: Nc1ncnc2c1ncn2[C@@H]1O[C@H](COP(=O)(O)OP(=O)(O)OC[C@H]2OC(O)[C@H](O)[C@@H]2O)[C@@H](O)[C@H]1O (stereo partly drawn) [ADPR, ADP-ribose]
